Reference: patent US20230337678A1, “NITRIC OXIDE-RELEASING ANTIBACTERIAL COMPOUNDS, FORMULATIONS, AND METHODS PERTAINING THERETO” (KNOW BIO, LLC, priority 2020, published 2023)

Key:
Mycobacterium abscessus = test: MIC/MBC assays, CLSI method; format: cell-based; settings: Table 14, unit not given

| SMILES | NO-loading (compositions of MTDD (NCT-19-096) and β-cyclodextrin) | NO Load (Table 14, unit not given) | MBC (Mycobacterium abscessus; M. abscessus N0010, clinical) | MIC (Mycobacterium abscessus; M. abscessus N0010, clinical) | MBC (Mycobacterium abscessus; M. abscessus N0016, clinical) | MIC (Mycobacterium abscessus; M. abscessus N0016, clinical) | MBC (Mycobacterium abscessus; M. abscessus N0017, clinical) | MIC (Mycobacterium abscessus; M. abscessus N0017, clinical) | MBC (Mycobacterium abscessus; M. abscessus N0018, clinical) | MIC (Mycobacterium abscessus; M. abscessus N0018, clinical) | MBC (Mycobacterium abscessus; M. abscessus N0019, clinical) | MIC (Mycobacterium abscessus; M. abscessus N0019, clinical) | MBC (Mycobacterium abscessus; M. abscessus N0020, clinical) | MIC (Mycobacterium abscessus; M. abscessus N0020, clinical) | MBC (Mycobacterium abscessus; M. abscessus N0046) | MIC (Mycobacterium abscessus; M. abscessus N0046) |
| --- | --- | --- | --- | --- | --- | --- | --- | --- | --- | --- | --- | --- | --- | --- | --- | --- |
| OC[C@H]1O[C@@H]2O[C@H]3[C@H](O)[C@@H](O)[C@@H](O[C@H]4[C@H](O)[C@@H](O)[C@@H](O[C@H]5[C@H](O)[C@@H](O)[C@@H](O[C@H]6[C@H](O)[C@@H](O)[C@@H](O[C@H]7[C@H](O)[C@@H](O)[C@@H](O[C@H]8[C@H](O)[C@@H](O)[C@@H](O[C@H]1[C@H](O)[C@H]2O)O[C@@H]8CO)O[C@@H]7CO)O[C@@H]6CO)O[C@@H]5CO)O[C@@H]4CO)O[C@@H]3CO [0% MTDD/100% β-cyclodextrin, β-cyclodextrin] | 0.0 µmol/mg |  |  |  |  |  |  |  |  |  |  |  |  |  |  |  |
| C[C@@H]1CCC[C@H](C)N1[N+]([O-])=N[O-].[Na+] [cis-DMP/NO] |  | 6.9 | 4 | 1 | 4 | 2 | 4 | 2 | 4 | 1 | 4 | 2 | 2 | 1 | 4 | 2 |
